Test results from patent publication EP1801112A1, “Bicyclic pyrimidines and bicyclic 3,4-dihydropyrimidines as inhibitors of cellular proliferation” (Warner-Lambert Company LLC, priority 1998, dated 1999).

What was measured:
cdk4/D = cdk4/D (Homo sapiens, UniProt P11802); experiment: Cyclin-Dependent Kinase 4 (cdk4) Assay; format: biochemical
Protocol: A typical assay, for instance, measures inhibitory activity against the cyclin D dependent kinase 4 enzyme (cdk4/D). […] The cdk4 assay was carried out as follows.
Cyclin-Dependent Kinase 4 (cdk4) Assay
Enzyme assays for IC50 determinations (Tables 1 and 2) and kinetic evaluation were performed in 96 well filter plates (Millipore MADVN6550). The total volume was 0.1 mL containing a final concentration of 20 mM TRIS (tris[hydroxymethyl]aminomethane), at pH 7.4, 50 mM NaCl, 1 mM dithiothreitol, 10 mM MgCl2, 25 µM ATP containing 0.25 µCi of [^32P]ATP, 20 ng of cdk4, 1 µg of retinoblastoma, and appropriate dilutions of a compound of the present invention. All components except the ATP were added to the wells, and the plate was placed on a plate mixer for 2 minutes. The reaction was started by adding [^32P]ATP and the plate was incubated at 25°C for 15 minutes. The reaction was terminated by addition of 0.1 mL of 20% trichloroacetic acid (TCA). The plate was kept at 4°C for at least 1 hour to allow the substrate to precipitate. The wells were then washed five times with 0.2 mL of 10% TCA and ^32P incorporation was determined with a beta plate counter (Wallac Inc., Gaithersburg, MD).

cdk2/cyclinE = cdk2/cyclinE (Homo sapiens, UniProt P24941); experiment: Cyclin-Dependent Kinase Assay cdk2/cyclinE; format: biochemical
Protocol: (§1) Cyclin-Dependent Kinase Assays (cdk2/cyclinE, cdk2/cyclinA, cdc2/cyclinB)
(§2) All components except the ATP were added to the wells, and the plate was placed on a plate mixer for 2 minutes. The reaction was begun by addition of [^32P]ATP, and the plate was incubated at 25°C for 15 minutes. The reaction was terminated by addition of 0.1 mL of 20% TCA. The plate was kept at 4°C for at least 1 hour to allow the substrate to precipitate. The wells were then washed five times with 0.2 mL of 10% TCA and ^32P incorporation determined with a beta plate counter (Wallac Inc., Gaithersburg, MD).

cdk2/cyclinA = cdk2/cyclinA (Homo sapiens, UniProt P24941); experiment: Cyclin-Dependent Kinase Assay cdk2/cyclinA; format: biochemical
Protocol: as §1, §2

cdc2/cyclinB = cdc2/cyclinB (Homo sapiens, UniProt P06493); experiment: Cyclin-Dependent Kinase Assay cdc2/cyclinB; format: biochemical
Protocol: as §1, §2

[1] = target: T1, PDGF-β receptor tyrosine kinase (Mus musculus, UniProt P05622); experiment: PDGF Receptor Tyrosine Kinase Assay; format: biochemical; conditions: glutamate-tyrosine co-polymer substrate, 50 µM ATP
T1 construct: amplify a fragment of DNA that codes for the intracellular tyrosine kinase domain; made in house; host or cells: SF9 insect cells (baculovirus); crude cell lysate used
Text: (§3) PDGF and FGF Receptor Tyrosine Kinase Assays
(§4) Full-length cDNAs for the mouse PDGF-β and human FGF-1 (flg) receptor tyrosine kinases were obtained from J. Escobedo and prepared as described in J. Biol. Chem., 1991;262:1482-1487. PCR primers were designed to amplify a fragment of DNA that codes for the intracellular tyrosine kinase domain. The fragment was inserted into a baculovirus vector, cotransfected with AcMNPV DNA, and the recombinant virus isolated. SF9 insect cells were infected with the virus to overexpress the protein, and the cell lysate was used for the assay. Assays were performed in 96-well plates (100 µL/incubation/well), and conditions were optimized to measure the incorporation of ^32P from γ^32P-ATP into a glutamate-tyrosine co-polymer substrate. Briefly, to each well was added 82.5 µL of incubation buffer containing 25 mM Hepes (pH 7.0), 150 mM NaCl, 0.1% Triton X-100, 0.2 mM PMSF, 0.2 mM Na3VO4, 10 mM MnCl2, and 750 µg/mL of Poly (4:1) glutamate-tyrosine followed by […] of inhibitor and 5 µL of enzyme lysate (7.5 µg/µL FGF-TK or 6.0 µg/µL PDGF-TK) to initiate the reaction. Following a 10 minute incubation at 25°C, 10 mL of γ^32P-ATP (0.4 µCi plus 50 µM ATP) was added to each well, and samples were incubated for an additional 10 minutes at 25°C. The reaction was terminated by the addition of 100 µL of 30% trichloroacetic acid (TCA) containing 20 mM sodium pyrophosphate and precipitation of material onto glass fiber mats (Wallac). Filters were washed three times with 15% TCA containing 100 mM sodium pyrophosphate, and the radioactivity retained on the filters counted in a Wallac 1250 Betaplate reader. Nonspecific activity was defined as radioactivity retained on the filters following incubation of samples with buffer alone (no enzyme). Specific enzymatic activity (enzyme plus buffer) was defined as total activity minus nonspecific activity. […]

c-Src = target: T2, c-Src (Homo sapiens, UniProt P12931); experiment: c-Src protein kinase assay; format: biochemical; conditions: poly GluTyr substrate, 5 µM ATP
T2 construct: made in house; host or cells: baculovirus infected insect cells
Protocol: The assay was carried out as follows: c-Src kinase was purified from baculovirus infected insect cell lysates using an antipeptide monoclonal antibody directed against the N-terminal amino acids (amino acids 2-17) of c-Src. The antibody, covalently linked to 0.65 µm latex beads, was added to a suspension of insect cell lysis buffer comprised of 150 mM NaCl, 50 mM Tris pH 7.5, 1 mM DTT, 1% NP-40, 2 mM EGTA, 1 mM sodium vanadate, 1 mM PMSF, 1 µg/mL each of leupeptin, pepstatin, and aprotinin. Insect cell lysate containing c-Src protein was incubated with these beads for 3 to 4 hours at 4°C with rotation. At the end of the lysate incubation, the beads were rinsed three times in lysis buffer, resuspended in lysis buffer containing 10% glycerol, and frozen. These latex beads were thawed, rinsed three times in assay buffer (40 mM Tris, pH 7.5, […]) and suspended in the same buffer. In a Millipore 96-well plate with a 0.65 µm polyvinylidine membrane bottom were added the reaction components: 10 µL c-Src beads, 10 µL of 2.5 mg/mL poly GluTyr substrate, 5 µM ATP containing 0.2 µCi labeled ^32P-ATP, 5 µL DMSO containing inhibitors or as a solvent control, and buffer to make the final volume 125 µL. The reaction was started at room temperature by addition of the ATP and quenched 10 minutes later by the addition of 125 µL of 30% TCA, 0.1 M sodium pyrophosphate for 5 minutes on ice. […] The filters were then punched, counted in a liquid scintillation counter, and the data examined for inhibitory activity in comparison to a known inhibitor such as erbstatin. […]

[2] = target: T3, FGF-1 (flg) receptor tyrosine kinase (Homo sapiens, UniProt P11362); experiment: FGF Receptor Tyrosine Kinase Assay; format: biochemical; conditions: glutamate-tyrosine co-polymer substrate, 50 µM ATP
T3 construct: amplify a fragment of DNA that codes for the intracellular tyrosine kinase domain; made in house; host or cells: SF9 insect cells (baculovirus); crude cell lysate used
Protocol: as §3
as §4, with “PCR” for “Full-length cDNAs for the mouse PDGF-β and human FGF-1 (flg) receptor tyrosine kinases were obtained from J. Escobedo and prepared as described in J. Biol. Chem., 1991;262:1482-1487. PCR”, “Following a 10 minute incubation at 25°C, 10 mL of γ^32P-ATP (0.4 µCi plus 50 µM ATP) was added to each well, and samples were incubated for an additional 10 minutes at 25°C.” left out, “Filters were washed three times with 15% TCA containing 100 mM sodium pyrophosphate, and the radioactivity retained on the filters counted in a Wallac 1250 Betaplate reader.” left out

[3] = system: human umbilical vein endothelial cells; experiment: Human Umbilical Vein Endothelial Cell (HUVEC) Proliferation Assay; format: cell-based; conditions: 96 h, four days incubation, Sulphorhodamine B staining
Protocol: The compounds of Formula I are useful for treating cell proliferative disorders concerning angiogenesis and have been evaluated in a human umbilical vein endothelial cell in vitro assay. The assay described below is used to determine the anti-proliferative effects of the invention compounds on human umbilical vein endothelial cells, and the results are shown in Table 7.
Human Umbilical Vein Endothelial Cell (HUVEC) Proliferation Assay
Ninety-six well tissue culture plates are seeded with 100 µL of cells in all wells of rows A->G with row H remaining empty as a blank. HUVEC (Clonetics, San Diego, CA) are grown in endothelial growth medium (EGM media, Clonetics), containing 2% fetal bovine serum. The cell seed density for HUVEC cells is 20,000 per mL. C6 cells (ATCC Cat. No. CCL-107) are seeded at 6000 per mL in F10 medium (nutrient mixture Hemes) supplemented with 15% horse serum, 2.5% fetal bovine serum, and 6.0 mL 200 mM Glutamine per 600 mL medium. A90 cells (Suny, Buffalo, NY) are also seeded at 6000 per mL, but they are grown in RPMI 1640 (Roswell Park Memorial Institute) plus 10% fetal bovine serum. Unless noted otherwise, tissue culture media and components are from GIBCO. The cells are allowed to incubate at 37°C, 5% CO2, and 100% relative humidity for 16-24 hours.
Invention compounds are prepared by dissolving them in DMSO at a concentration of 5 mM, followed by dilution to 50 µM in EGM media. One hundred microliters of the compounds are applied to duplicate wells in column 1 of the previously prepared cell plates. Column 1 row H receives 100 µL of EGM media. The compounds in column 1 are diluted across the plates using serial twofold dilutions.
The plates are incubated as above for an additional four days before being stained with Sulphorhodamine B. Staining is performed as follows: The media is removed from the plates, and the cells are fixed using 10% trichloroacetic acid for 30 minutes at 4°C. Following fixation, the plates are washed five times with distilled water after which 100 µL of Sulphorhodamine B is added to each well. Sulphorhodamine B is dissolved in 1% acetic acid to a concentration of .075%. Following staining, excess stain is removed from the wells, and the plates are washed four times with 1% acetic acid. The plates are allowed to air dry before the bound dye is solubilized in 100 µL of 10 mM unbuffered TRIS base. Absorbance is measured on a 96 well plate reader at […] using a reference filter wavelength of 630 nm. […] Sulphorhodamine B and TRIS are from Sigma Chemical Company. Acetic acid and trichloroacetic acid are from Mallinckrodt AR.

Sequence of cdc2/cyclinB (P06493 whole entry): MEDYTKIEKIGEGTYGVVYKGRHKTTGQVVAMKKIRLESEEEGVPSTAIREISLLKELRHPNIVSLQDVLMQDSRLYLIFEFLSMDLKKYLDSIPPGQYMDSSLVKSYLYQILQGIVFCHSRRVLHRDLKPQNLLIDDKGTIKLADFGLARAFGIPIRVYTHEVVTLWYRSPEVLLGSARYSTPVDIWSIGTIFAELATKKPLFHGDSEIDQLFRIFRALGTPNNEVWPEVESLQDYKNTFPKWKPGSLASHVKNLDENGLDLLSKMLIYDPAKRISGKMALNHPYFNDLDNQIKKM
Sequence of cdc2/cyclinB (P14635 whole entry, further chain): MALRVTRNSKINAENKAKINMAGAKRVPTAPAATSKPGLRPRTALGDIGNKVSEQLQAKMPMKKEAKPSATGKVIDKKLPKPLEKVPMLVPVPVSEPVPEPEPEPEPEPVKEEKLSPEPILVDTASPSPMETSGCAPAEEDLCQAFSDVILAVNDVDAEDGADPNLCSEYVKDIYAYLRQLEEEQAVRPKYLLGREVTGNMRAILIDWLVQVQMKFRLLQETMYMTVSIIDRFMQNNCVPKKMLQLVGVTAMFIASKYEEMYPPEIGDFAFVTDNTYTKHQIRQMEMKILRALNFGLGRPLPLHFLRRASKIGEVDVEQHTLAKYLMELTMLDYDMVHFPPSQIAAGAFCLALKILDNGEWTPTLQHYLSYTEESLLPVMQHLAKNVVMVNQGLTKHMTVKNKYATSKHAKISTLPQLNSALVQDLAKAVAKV
T3 sequence (P11362 478-767 limits assumed): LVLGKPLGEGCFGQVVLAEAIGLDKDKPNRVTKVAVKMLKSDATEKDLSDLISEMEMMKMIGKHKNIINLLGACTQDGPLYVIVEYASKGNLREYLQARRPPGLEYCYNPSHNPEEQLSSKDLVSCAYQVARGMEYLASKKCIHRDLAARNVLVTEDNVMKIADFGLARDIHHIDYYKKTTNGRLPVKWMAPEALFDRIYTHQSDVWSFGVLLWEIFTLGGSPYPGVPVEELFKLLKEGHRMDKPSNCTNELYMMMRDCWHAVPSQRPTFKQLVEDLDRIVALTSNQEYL
T1 sequence (P05622 599-961 limits assumed): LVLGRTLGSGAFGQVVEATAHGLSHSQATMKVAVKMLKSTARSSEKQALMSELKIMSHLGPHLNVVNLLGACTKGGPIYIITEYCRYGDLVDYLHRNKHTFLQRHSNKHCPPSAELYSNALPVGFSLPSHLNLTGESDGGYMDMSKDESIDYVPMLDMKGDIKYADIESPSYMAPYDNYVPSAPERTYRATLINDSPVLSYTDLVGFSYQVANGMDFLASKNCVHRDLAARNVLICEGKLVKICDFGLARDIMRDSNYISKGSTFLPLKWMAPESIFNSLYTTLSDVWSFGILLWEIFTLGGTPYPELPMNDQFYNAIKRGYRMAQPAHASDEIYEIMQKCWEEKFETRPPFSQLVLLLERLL
Sequence of cdk4/D (P11802 whole entry): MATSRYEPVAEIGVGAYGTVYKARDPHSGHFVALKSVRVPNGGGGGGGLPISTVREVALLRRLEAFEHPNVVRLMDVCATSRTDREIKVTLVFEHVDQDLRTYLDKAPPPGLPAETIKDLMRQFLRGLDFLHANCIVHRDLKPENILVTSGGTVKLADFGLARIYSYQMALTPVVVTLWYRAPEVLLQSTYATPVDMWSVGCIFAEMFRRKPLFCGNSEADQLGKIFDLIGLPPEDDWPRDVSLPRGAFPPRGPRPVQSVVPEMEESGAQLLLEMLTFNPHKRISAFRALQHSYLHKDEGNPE
Sequence of cdk4/D (P24385 whole entry, further chain): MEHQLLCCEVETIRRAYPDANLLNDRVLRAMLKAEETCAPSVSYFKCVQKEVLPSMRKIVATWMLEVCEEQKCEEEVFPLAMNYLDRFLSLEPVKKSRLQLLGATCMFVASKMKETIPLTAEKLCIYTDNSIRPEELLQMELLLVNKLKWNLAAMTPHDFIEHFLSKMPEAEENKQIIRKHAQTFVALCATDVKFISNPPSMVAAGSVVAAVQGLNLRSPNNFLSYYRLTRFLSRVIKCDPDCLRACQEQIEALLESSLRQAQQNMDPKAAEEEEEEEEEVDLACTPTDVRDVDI
T2 sequence (P12931 whole entry): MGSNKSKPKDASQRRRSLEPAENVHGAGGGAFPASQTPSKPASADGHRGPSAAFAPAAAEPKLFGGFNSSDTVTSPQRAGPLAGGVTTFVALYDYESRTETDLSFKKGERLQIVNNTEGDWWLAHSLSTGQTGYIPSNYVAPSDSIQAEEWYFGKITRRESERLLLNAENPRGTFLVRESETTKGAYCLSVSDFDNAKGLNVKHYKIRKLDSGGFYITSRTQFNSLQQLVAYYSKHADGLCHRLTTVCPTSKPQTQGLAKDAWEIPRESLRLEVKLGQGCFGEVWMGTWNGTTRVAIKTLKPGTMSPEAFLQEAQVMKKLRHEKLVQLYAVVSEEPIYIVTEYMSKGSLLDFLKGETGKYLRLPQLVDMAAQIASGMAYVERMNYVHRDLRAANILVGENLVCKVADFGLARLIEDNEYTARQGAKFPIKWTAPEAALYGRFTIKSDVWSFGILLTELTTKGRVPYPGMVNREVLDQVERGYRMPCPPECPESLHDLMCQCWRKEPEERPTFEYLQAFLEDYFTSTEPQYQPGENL

O=C1NCc2cnc(Nc3ccc(N4CCCC(O)C4)cc3)nc2N1C1CCCC1 (stereo not drawn) [Example 16, 1-Cyclopentyl-7-[4-(3-hydroxypiperidin-1-yl)phenylamino]-3,4-dihydropyrimido[4,5-d]pyrimidin-2(1H)-one]
IC50 (cdk4/D): 630 nM | IC50 (cdk2/cyclinE): 1500 nM | IC50 (cdk2/cyclinA): 640 nM | IC50 (cdc2/cyclinB): 14900 nM | IC50 [1]: 0.83 µM | IC50 (c-Src): 4120 nM

CC1CN(c2ccc(Nc3ncc4c(n3)N(C3CCCC3)C(=O)NC4)cc2)CC(C)N1 (stereo not drawn) [Example 18, 1-Cyclopentyl-7-[4-(3,5-dimethylpiperazin-1-yl)phenylamino]-3,4-dihydropyrimido[4,5-d]pyrimidin-2(1H)-one]
IC50 (cdk4/D): 350 nM | IC50 (cdk2/cyclinE): 2000 nM | IC50 [1]: 0.21 µM | IC50 (c-Src): 400 nM

O=c1ncc2cnc(Nc3ccc(-n4cccn4)cc3)nc2n1C1CCCC1 [Example 36, 1-Cyclopentyl-7-[4-(pyrazol-1-yl)phenylamino]pyrimido[4,5-d]pyrimidin-2(1H)-one]
IC50 (cdk4/D): 435 nM | IC50 (cdk2/cyclinE): 2440 nM | IC50 (cdk2/cyclinA): 1330 nM | IC50 (cdc2/cyclinB): 16100 nM | IC50 [1]: > 50 µM | IC50 [2]: > 50 µM

CCN(CC)CCOc1ccc(Nc2ncc3c(n2)N(CC)C(=O)N(c2cc(OC)cc(OC)c2)C3)cc1 [Example 53a, 7-[4-(2-Diethylamino-ethoxy)-phenylamino]-3-(3,5-dimethoxy-phenyl)-1-ethyl-3,4-dihydro-pyrimido[4,5-d]pyrimidin-2(1H)-one]
IC50 [1]: < 0.5 µM | IC50 [2]: 0.02 µM

CCN1C(=O)N(c2cc(OC)cc(OC)c2)Cc2cnc(NCCCCN3CCN(C)CC3)nc21 [Example 58, 3-(3,5-Dimethoxy-phenyl)-1-ethyl-7-[4-(4-methyl-piperazin-1-yl)-butylamino]-3,4-dihydro-pyrimido[4,5-d]pyrimidin-2(1H)-one]
IC50 [3]: 134 nM

CCN1C(=O)N(c2cc(OC)cc(OC)c2)Cc2cnc(NCCCCCN3CCN(C)CC3)nc21 [Example 59, 3-(3,5-Dimethoxy-phenyl)-1-ethyl-7-[5-(4-methyl-piperazin-1-yl)-pentylamino]-3,4-dihydro-pyrimido[4,5-d]pyrimidin-2(1H)-one]
IC50 [3]: 112 nM

CCN(CC)CCCNc1ncc2c(n1)N(CC)C(=O)N(c1cc(OC)cc(OC)c1)C2 [Example 60, 7-(3-Diethylamino-propylamino)-3-(3,5-dimethoxy-phenyl)-1-ethyl-3,4-dihydro-pyrimido[4,5-d]pyrimidin-2(1H)-one]
IC50 [3]: 943 nM

CCN(CC)CCCCNc1ncc2c(n1)N(CC)C(=O)N(c1cc(OC)cc(OC)c1Cl)C2 [Example 65, 3-(2-Chloro-3,5-dimethoxy-phenyl)-7-(4-diethylamino-butylamino)-1-ethyl-3,4-dihydro-pyrimido[4,5-d]pyrimidin-2(1H)-one]
IC50 [3]: 36 nM

C=CCn1c(=O)c2cnc(Nc3ccc(N4CCN(C)CC4)cc3)nc2n(C(C)C)c1=O [Example 70, 3-Allyl-1-isopropyl-7-[4-(4-methylpiperazin-1-yl)phenylamino]-1H-pyrimido[4,5-d]pyrimidine-2,4-dione]
IC50 (cdk4/D): 3450 nM | IC50 (cdk2/cyclinA): > 40000 nM | IC50 (cdc2/cyclinB): > 40000 nM | IC50 [1]: > 50 µM | IC50 [2]: > 50 µM
